Experimental data: US9206206B2, “Oxidized lipid compounds and uses thereof” (Vascular Biogenics Ltd., priority 2008, dated 2015)
“Also recorded” adds a separate entry of the source.

Tests used:
[1] = test system: LDL-RD male mice; assay: In vivo atherosclerotic lesion assay, LDL-RD mice; conditions: 1 mg/mouse (60 mg/kg) orally, 5 treatments every other day, western diet 5 weeks, aortic sinus
Method: (§1) In Vivo Atherosclerotic Lesion Assay:
12-16-week old LDL-RD male mice were orally administered with 0.2 ml of PBS or PBS with an indicated amount of the tested compound, once a day, every other day, for 5 treatments. The mice were challenged with western diet for 5 weeks and then sacrificed.
(§2) The quantification of atherosclerotic lesions was done by calculating the lesion size in the aortic sinus as previously described [Paigen et al., Quantitative assessment of atherosclerotic lesions in mice. Atherosclerosis 1987; 68:231-240] with a few modifications. Briefly, the heart and the aorta were removed from the animals, and the peripheral fat was cleaned carefully. The hearts were embedded in Optimal Cutting Temperature (OCT) gel and frozen. Aortic sinus lesion was determined from 3-8 Oil red O-stained serial sections (10 μm thick), throughout the aortic sinus (400 μm). The lesion area was calculated using a computer analyzing method (Image Pro Plus software [version 4.5.1.29], Medical Cybernetics Corporation).

[2] = test system: mouse peritoneal macrophages; assay: In vitro toxicity assay; format: cell-based
Method: Thioglycollate-elicited mouse peritoneal macrophages were washed, counted and seeded (2×10^5 to 3×10^5 cells per well in 24-well plates) in triplicate wells in medium containing RPMI-1640, L-glutamine, 10% FBS and antibiotics (penicillin/streptomycin). After a recovery period of 24 hours, the tested compound (or controls) was added to the cell medium at doses of 2, 10, 20, 50, 100 or 150 μg/ml, keeping the added volume equal in all treatments by complementing the volume with solvent.
Following addition of the compounds, the cells were incubated for an additional 24 hours, after which the cells were washed, fixed with a solution of 10% methanol/10% acetic acid and stained with crystal violet (0.4% in 20% ethanol). Cell numbers were measured by determining optical density at 595 nm. Cells incubated with vehicle (PBS with 1% ethanol) were used as a control, to which cell numbers in treated samples were normalized.
Data are presented as mean±standard deviation. Statistical significance relative to vehicle-treated cells was calculated using a student's t-test, with p-values of less than 0.05 being considered as indicating statistical significance.

[3] = test system: tyrosine phosphorylation in primary macrophages; assay: Tyrosine phosphorylation assay in primary macrophages (Western blot); format: cell-based, mouse
Method: (§3) Tyrosine Phosphorylation Assay: Tyrosine phosphorylation in macrophages or bone marrow-derived cells (BMDCs) of mice was assayed. Mouse primary macrophages were isolated from the peritoneum of 7-8 week old C57BL/6 female mice following thioglycollate stimulation. […] Mouse primary bone marrow-derived cells were isolated by flushing bone marrow out of the femur and tibia of female SJL mice using cold RPMI-1640. […] Cells were then washed, resuspended in the same buffer and depleted of B and T cells on a Midi-Macs separation unit through a LD or LS column (Miltenyi Biotech). […] The medium was replaced every other day. […] Proteins with phosphorylated tyrosine were then observed by Western blot, using a monoclonal anti-phosphotyrosine antibody. Western blotting for ERK1/2 or α-tubulin was performed as a control for protein loading.

[4] = test system: IL12/23 p40 mRNA; assay: In vitro IL12/23 p40 mRNA expression assay; format: cell-based, mouse; conditions: CD11c+ dendritic cells, 20 μg/ml, 10 μg/ml peptidoglycan, 2-4 hours following administration
Method: In Vitro IL12/23 p40 mRNA Expression Assay:
Bone marrow-derived cell cultures were prepared as described hereinabove. On days 5-6 post culturing, the cell cultures were enriched for CD11c+ dendritic cells (>90%) with mouse CD11c microbeads over MS or LS columns (Miltenyi Biotech). CD11c+ dendritic cells were stimulated for 1, 2 and 3 hours with 10 μg/ml peptidoglycan alone or in the presence of 20 μg/ml of the tested compound added 1 hour before activation. RNA was extracted from cells using RNeasy mini kit (Qiagen, Valencia, Calif.). For cDNA preparation, 1 μg of RNA was combined with Oligo dT for 10 minutes at 70° C., 1st strand buffer. Dithiothreitol and dNTP and super-script reverse transcriptase (Invitrogen, Carlsbad, Calif.) were added for 50 minutes at 42° C. and the reaction was ended by incubation for an additional 15 minutes at 70° C. All real time PCR reactions were performed using LightCycler Taqman master (Roche Diagnostics, Mannheim, Germany) and run on the LightCycler machine (Roche). Ready sets of probe with primers were used for IL12/23 p40 and GAPDH assays (Applied Biosystems, assays #Mm01288992_m1 and Mm99999915_g1, respectively) with the latter served to normalize RNA levels. 20 μg/ml CI-201 and phosphatidylcholine (PC) were used as positive and negative controls respectively.

[5] = test system: C57BL/6 mice; assay: In vivo MOG-induced experimental autoimmune encephalomyelitis (EAE) assay; set-up: species or system mouse; conditions: 4 mg/kg orally, 5 consecutive days starting 5 days before immunization
Method: In Vivo Myelin Oligodendrocyte Glycoprotein (MOG)-Induced Experimental Autoimmune Encephalomyelitis (EAE) Assay:
C57BL/6 mice were orally administered with the indicated amount of the tested compound in a final volume of 200 μl for 5 consecutive days starting 5 days before immunization.
For EAE induction, mice were immunized subcutaneously with an emulsion containing 1.5 mg/ml MOG peptide 35-55 ([…]) and 2.5 mg/ml CFA (complete Freund's adjuvant), 100 μl emulsion being injected into each flank. Pertussis toxin (500 ng in 500 μl PBS) was administered intraperitoneally immediately and 48 hours after the immunization.
Onset of EAE was evaluated by a mean clinical score.

[6] = test system: DBA/1 male mice; assay: In vivo collagen-induced arthritis (CIA) assay; set-up: species or system mouse
Method: In Vivo Collagen-Induced Arthritis (CIA) Assay:
DBA/1 male mice were immunized to induce arthritis by a collagen injection containing complete Freund's adjuvant (CFA) in the base of the tail (day 0) and a booster shot in the flank (day 21). Mice were followed for arthritis development until day 36. Administration by gavage of the tested compound and control substances began on day 22 and was carried out on a daily basis (6 times per week).
Onset of arthritis was evaluated by an arthritis clinical score.

[7] = test system: IL12/23 p40; assay: In vitro IL12/23p40 production assay; format: cell-based, mouse; conditions: bone marrow-derived cells, compound 1, 2.5, 5, 10 or 20 μg/ml for 1 hour, then 10 μg/ml peptidoglycan 24 hours, ELISA
Method: In Vitro IL12/23p40 Production Assay:
Bone marrow derived cells (BMDCs) were obtained from the femur and tibia of female C57BL mice, cultured, and seeded at a concentration of 10^6 cells/ml 5-6 days post-culturing, as described hereinabove for the tyrosine phosphorylation assay.
The tested compound was then added to the cells for 1 hour at a concentration of 1, 2.5, 5, 10 or 20 μg/ml. The cells were activated for IL12/23p40 production by incubation for 24 hours with 10 μg/ml peptidoglycan (PGN). Cytokine production from the supernatant was measured by ELISA. Activated cells without the tested compound were used as the control.

[8] = test system: tyrosine phosphorylation in bone marrow-derived cells; assay: Tyrosine phosphorylation assay in bone marrow-derived cells (Western blot); format: cell-based, mouse
Method: as §3

[9] = test system: ApoE KO mice; assay: In vivo atherosclerotic lesion assay, ApoE KO mice; conditions: 1 mg/mouse (40 mg/kg) orally, 5 treatments every other day, sacrificed by the end of 8 weeks, aortic sinus
Method: as §1
Alternatively, 14-16-week old ApoE KO mouse were orally administered with 0.2 ml of PBS or PBS with an indicated amount of the tested compound, once a day, every other day, for 5 treatments, and sacrificed by the end of 8 weeks.
as §2

[10] = peritoneal macrophages, 24 hours, doses 2-150 μg/ml

Compound: CCCCCCCCCCCCCCCCOC[C@H](COP(=O)([O-])OCC[N+](C)(C)C)OCCCCC(O)CO (stereo partly shown) [di-OH, 1-Hexadecyl-2-(5,6-dihydroxy)hexanyl-glycero-3-phosphocholine]
- decrease of atherosclerotic lesion area as compared to the control (PBS) [1]: 25%
- dose at which (significant) toxicity was detected [2, 10]: ≥ 20 µg/mL

Compound: CCCCCCCCCCCCCCCCOC[C@H](COP(=O)([O-])OCC[N+](C)(C)C)OCCCCC(=O)O [CI-201, 1-hexadecyl-2-(4-carboxy)butyl-sn-glycero-3-phosphocholine, reference compound]
- phosphotyrosine levels ([3]; 20 ng/ml): reduction
- phosphotyrosine levels ([3]; 10 μg/ml, 10 minutes): caused an increase in phosphotyrosine levels
- phosphotyrosine levels ([3]; 20 μg/ml, 10 minutes): caused a decrease in phosphotyrosine levels; also recorded: caused a reduction in phosphotyrosine levels
- IL12/23 p40 mRNA expression [4]: inhibition by CI-202 was comparable to the inhibition by CI-201

Compound: CCCCCCCCCCCCCCCCOCC(COP(=O)(O)OCCN)OCCCCC(=O)O (stereo not shown) [CI-202, 1-Hexadecyl-2-(4-carboxy)butyl-glycero-3-phosphoethanolamine]
- development of MOG-induced EAE (mean clinical score) [5]: delayed disease onset and reduced clinical manifestation of EAE
- decrease of peak arthritis clinical score relative to the control mice ([6]; 0.4 mg/kg by gavage daily from day 22): 42%
- arthritis severity (arthritis clinical score) ([6]; 0.4 mg/kg by gavage daily from day 22, followed until day 36): significantly decreased arthritis severity throughout the study period
- phosphotyrosine levels ([3]; 10 μg/ml, 10 minutes): induction of tyrosine phosphorylation
- phosphotyrosine levels ([3]; 20 μg/ml, 10 minutes): reduction in phosphotyrosine levels
- production of IL12/23 p40 [7]: inhibited production of IL12/23 p40 by bone marrow-derived cells in a dose-dependent manner
- dose at which (significant) toxicity was detected ([2]; mouse, 24 h): above 50 μg/ml
- IL12/23 p40 mRNA expression [4]: inhibited IL12/23 p40 mRNA expression during the whole tested time period

Compound: CCCCCCCCCCCCCCCCOC[C@H](COP(=O)([O-])OCC[N+](C)(C)C)OCCCCCCC(=O)O [(R)-CI-203, (R)-1-hexadecyl-2-(6-carboxy)hexanyl-sn-glycero-3-phosphocholine]
- phosphotyrosine levels ([8]; 20 μg/ml (33 μM)): caused a reduction in phosphotyrosine levels

Compound: CCCCCCCCCCCCCCCCOCC(COP(=O)([O-])OCC[N+](C)(C)C)OCCCCC(OC)OC (stereo not shown) [diMeAc, 1-hexadecyl-2-(5′,5′-dimethoxypentyl)-glycero-3-phosphocholine]
- decrease of atherosclerotic lesion area as compared to the control (PBS) [9]: 23%

Compound: CCCCCCCCCCCCCCCCOCC(COP(=O)([O-])OCC[N+](C)(C)C)OCCCCCCC(=O)O (stereo not shown) [CI-203, 1-Hexadecyl-2-(6-carboxy)hexanyl-glycero-3-phosphocholine]
- phosphotyrosine levels ([8]; 1 μg/ml (1.7 μM)): no apparent effect
- production of IL12/23 p40 [7]: inhibited production of IL12/23 p40 by bone marrow-derived cells in a dose-dependent manner
- dose at which (significant) toxicity was detected [2, 10]: 100 µg/mL
